A short description of data set [1]: water solubility of the adduct. The format is physicochemical. Particulars: water-soluble salt, e.g. alkali metal (sodium) salt. The text has this: (§1) Diacetyl is known to form an adduct with sodium hydrogen sulfite [2-butanesulfonic acid, 2-hydroxy-3-oxo-, monosodium salt—CAS 13489-36-6]. See also French patent 2,845,903. This adduct is in equilibrium with the starting materials and, in practice, releases small amounts of diacetyl and sulfite continuously. The above-mentioned French patent discloses that the adduct is useful in hair care products as a straightening agent. The vapor pressure of the diacetyl adduct is negligible, thereby resulting in little or no odor. It is usually obtained and used in the form of a water-soluble salt, such as, e.g., an alkali metal (sodium) salt. Since it is water soluble, it can therefore be sprayed directly onto foodstuffs safely. The flavor imparted by the adduct is dominated by diacetyl, since at low concentrations, the sulfite taste and flavor is imperceptible.

A short description of data set [2]: vapor pressure of the adduct. The format is physicochemical. The conditions noted are these: resulting in little or no odor.
Description: as §1

Regarding `CC(=O)C(C)(O)S(=O)(=O)[O-].[Na+]` (centres unmarked) [diacetyl adduct, 2-butanesulfonic acid, 2-hydroxy-3-oxo-, monosodium salt], in data set [1], the water solubility result is on record as “water soluble”. The vapor pressure result in data set [2] was “negligible”.

Values taken from patent US20090162495A1, “Derivatives of Di-Carbonyl Aromachemicals” (FLEXITRAL INC, priority 2005, published 2009).
